According to patent US9862690B2, “Treatment of pulmonary and other conditions” (University of Pittsburgh—of the Commonwealth System of …, priority 2013, dated 2018):

What was measured:
[1] = Nebulization of PB141: aerosol droplet size by Andersen cascade impactor; format: physicochemical; conditions: dissolved in water or PBS; micropump nebulizer, 10 L of air/min
Method: PB141 was dissolved in water or different concentrations of PBS and the solutions were aerosolized using a micropump nebulizer (Buxco Research Systems, Wilmington, N.C.) flowing at 10 L of air/min. Aerosol droplet size was measured with an Andersen cascade impactor. (A) Distribution of PB141 aerosol droplet sizes. (B) The concentration of PB141 during a 30 min nebulization period was measured by collecting samples during nebulization and analyzing by spectrophotometer in two independent experiments.
PB141 was dissolved in water or different concentrations of PBS and aerosols were generated using a micropump nebulizer (Buxco Research Systems, Wilmington, N.C.) flowing at 10 L of air/min. Aerosol droplet size was measured with an Andersen cascade impactor. The concentration of PB141 during a 30-min nebulization period was measured by collecting samples during nebulization and analyzing them by spectrophotometer in […]. […] Nebulization was optimal for a solution of PB141 in 2% saline, although a formulation in pure water was also effective.

Nrf2 = Nrf2 DNA-binding activity and nuclear concentration in BEAS-2B cells; format: cell-based; conditions: different concentrations, 24 h
Method: (§1) BEAS-2B cells were treated with varying concentrations of PB141 for 24 h, after which (A) Nrf2 activity was measured or (C) nuclear Nrf2 concentration was determined by Western blotting. (B) In other experiments cells were pretreated with varying concentrations of PB141 for 1 h, then with LPS (500 ng/ml) for 6 h. Cells were then isolated and activity of NF-κB was measured.
(§2) BEAS-2B cells were cultured in Dulbecco's modified Eagle's medium (DMEM) containing 10% heat-inactivated fetal bovine serum, penicillin, and streptomycin (100 IU/ml). Monolayer cultures were treated with different concentrations of PB141 for 24 h. Cells were then isolated and the DNA-binding activity of the antioxidant transcription factor Nrf2 was determined. The nuclear concentration of Nrf2 was also determined by Western blotting. […] In some experiments monolayer cultures were deprived of serum for 24 h, pre-treated with different concentrations of PB141 for 1 h, then exposed to LPS for 6 h. Nuclear proteins were prepared and were used to quantify DNA-binding activity of the p65 subunit of NF-κB.

p65 subunit of NF-κB = biological target: T1, p65 subunit of NF-κB (Homo sapiens, UniProt Q04206); assay: LPS-induced NF-κB p65 DNA-binding activity in BEAS-2B cells; format: cell-based; conditions: 1 h pre-treatment, then LPS 6 h
T1 construct: endogenous in cells; host or cells: BEAS-2B
T1 sequence (Q04206 whole entry): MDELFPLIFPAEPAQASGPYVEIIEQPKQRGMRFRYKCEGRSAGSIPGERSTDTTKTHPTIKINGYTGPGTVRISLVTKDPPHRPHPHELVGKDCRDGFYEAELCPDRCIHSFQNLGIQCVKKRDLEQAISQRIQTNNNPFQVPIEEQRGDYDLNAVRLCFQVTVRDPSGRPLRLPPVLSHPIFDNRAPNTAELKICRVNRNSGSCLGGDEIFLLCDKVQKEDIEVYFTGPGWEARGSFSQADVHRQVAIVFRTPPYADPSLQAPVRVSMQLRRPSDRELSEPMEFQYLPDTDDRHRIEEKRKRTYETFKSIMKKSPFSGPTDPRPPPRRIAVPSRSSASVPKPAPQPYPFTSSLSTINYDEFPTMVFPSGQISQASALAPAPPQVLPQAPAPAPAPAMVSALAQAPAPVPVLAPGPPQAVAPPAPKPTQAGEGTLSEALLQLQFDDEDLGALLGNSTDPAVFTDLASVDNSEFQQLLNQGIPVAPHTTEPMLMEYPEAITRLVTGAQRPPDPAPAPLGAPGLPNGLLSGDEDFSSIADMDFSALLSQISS
Method: as §1, §2

[2] = tested on: NNK-induced lung tumorigenesis in A/J mice; assay: NNK-induced lung tumorigenesis in A/J mice; format: in vivo; conditions: 25 mg/kg nebulized 30 min/day for eight weeks
Method: Induction of lung tumorigenesis by intraperitoneal (i.p.) injection on days 1, 3, and 5 with 50 mg/kg of NNK dissolved in saline was followed by nebulization of PB141 (25 mg/kg) or vehicle (saline) and delivery to cage air via a micropump nebulizer. After 8 weeks the lung was examined histologically following H&E staining. (A) Number of lung lesions. (B) Histology showing lung tumor incidence and burden. Data are representative of one of two independent experiments with n=9-11 mice per group.
A/J mice were injected intraperitoneally on days 1, 3, and 5 with 50 mg/kg of 4-methylnitrosamino-1-(3-pyridyl)-1-butanone (NNK; Chemsyn Science Laboratories, Lenexa, Kans.) dissolved in saline. The mice were then held for 8 weeks to allow development of preinvasive lesions: alveolar hyperplasias and adenomas. […]
Mice were euthanized following the eight-week treatment period. […] Lung lesions were quantified by determining the incidence and prevalence of pulmonary pleural surface tumors, counting both the right and left lungs of each mouse. […] Hyperplastic and neoplastic lesions of the lungs were scored according to the International Classification of Rodent Tumors in 6 or 7 sections per lung. Sections were further assessed for morphometry and Ki67 immunohistochemistry.

[3] = tested on: lung epithelial cells (BEAS2B); assay: IFN-γ or IL-4/IL-13 stimulated lung epithelial cells; format: cell-based; conditions: 10 ng/ml IFN-γ or IL-4/IL-13 for 6 h
Excerpt: It suppressed the infiltration of inflammatory cells into the airspace and lung and attenuated the expression of cytokines, chemokines, and IgE in BALF and serum.

CC(=O)N[C@@H](CSC(CC(=O)CC(SC[C@H](NC(C)=O)C(=O)O)c1cnccn1)c1cnccn1)C(=O)O (stereo partly drawn) [PB141]
Aerosol droplet size [1]: 1-2 μm | DNA-binding activity of Nrf2 (Nrf2): increased both nuclear localization and DNA-binding activity of Nrf2 in a concentration-dependent manner | Nuclear localization of Nrf2 (Western blotting) (Nrf2): increased both nuclear localization and DNA-binding activity of Nrf2 in a concentration-dependent manner | Inhibition of NF-κB activity at 1 μM (p65 subunit of NF-κB; 1 μM): almost complete inhibition | NF-κB activity (p65 DNA-binding) (p65 subunit of NF-κB; different concentrations): inhibited NF-κB activity in a concentration-dependent manner | Inhibition of tumor progression, premalignant lung cancer, and cell proliferation [2]: ~40% | Cytokine generation [3]: inhibited | NO production [3]: inhibited | iNOS expression [3]: inhibited
